In US9278922B2 (ABBVIE INC., priority 2009, dated 2016) one finds EC50 data, which are given here for 17 molecules.

Each structure is given as a SMILES string. pEC50: −log10 of the molar value.

As a reminder, the pEC50 is the EC50 on a negative log10 scale, so that one unit is a factor of ten.

The subject of the assay is HCV 1b-Con-1 replicon. In words: HCV 1b-Con-1 replicon assay (luciferase reporter gene, HuH-7 cells). The settings on record: Hepatitis C virus, Huh-7, luciferase reporter gene activity in the replicon, in the presence of 5% FBS. It counts as cell-based, Hepatitis C virus (HCV) genotype 1b-Con1. (In general: In antiviral work, replicon cells carry a viral genome segment that copies itself.)
Consider `COC(=O)N[C@H](C(=O)N1C[C@H](F)C[C@H]1C(=O)Nc1ccc(CN(Cc2ccc(NC(=O)[C@@H]3C[C@@H](F)CN3C(=O)[C@@H](NC(=O)OC)C(C)(C)C)cc2)c2ccc(F)cc2)cc1)C(C)(C)C` [Example 103], for which the negative logarithm of the EC50 (pEC50) was greater than 9.00.
The same measure for `COC(=O)N[C@H](C(=O)N1CCC[C@H]1/C=C/c1ccc(CN(Cc2ccc(NC(=O)[C@@H]3CCCN3C(=O)[C@@H](NC(=O)OC)C(C)(C)C)cc2)c2ccccc2)cc1)C(C)(C)C` [Example 149, N-(methoxycarbonyl)-3-methyl-L-valyl-N-(4-{[{4-[(E)-2-{(2S)-1-[N-(methoxycarbonyl)-3-methyl-L-valyl]pyrrolidin-2-yl}ethenyl]benzyl}(phenyl)amino]methyl}phenyl)-L-prolinamide]: 7.00 to 8.00.
The same measure for `COC(=O)N[C@H](C(=O)N1CCC[C@H]1C(=O)Nc1ccc(CN(Cc2ccc(NC(=O)[C@@H]3CCCN3C(=O)[C@H](NC(=O)OC)c3ccccc3)cc2)c2ccccc2)cc1)C(C)C` [Example 70, N-(methoxycarbonyl)-L-valyl-N-(4-{[{4-[(1-{(2R)-2-[(methoxycarbonyl)amino]-2-phenylacetyl}-L-prolyl)amino]benzyl}(phenyl)amino]methyl}phenyl)-L-prolinamide]: greater than 9.00; for `COC(=O)N[C@H](C(=O)N1CCC[C@H]1C(=O)Nc1ccc(CN(Cc2ccc(NC(=O)[C@@H]3CCCN3C(=O)[C@@H](c3ccccc3)N3CCCC3)cc2)c2ccccc2)cc1)C(C)(C)C` [Example 56, N-(methoxycarbonyl)-3-methyl-L-valyl-N-[4-({phenyl[4-({1-[(2R)-2-phenyl-2-pyrrolidin-1-ylacetyl]-L-prolyl}amino)benzyl]amino}methyl)phenyl]-L-prolinamide]: greater than 9.00; for `O=C(Nc1ccc(CN(Cc2ccc(NC(=O)[C@@H]3CCCN3C(=O)C(c3ccccc3)N3CC[C@H](F)C3)cc2)c2ccc(F)cc2)cc1)[C@@H]1CCCN1C(=O)C(c1ccccc1)N1CC[C@H](F)C1` (stereo partly drawn) [Example 119, (2S,2′S)-N,N′-{[(4-fluorophenyl)imino]bis(methanediylbenzene-4,1-diyl)}bis(1-{[(3S)-3-fluoropyrrolidin-1-yl](phenyl)acetyl}pyrrolidine-2-carboxamide)]: greater than 9.00.
The value for `COC(=O)N[C@H](C(=O)N1CCC[C@H]1C(=O)Nc1ccc(CN(Cc2ccc(NC(=O)[C@@H]3CCCN3C(=O)[C@H](NC(=O)OC)c3ccccc3)cc2)c2ccccc2)cc1)[C@H]1CCOC1` [Example 72] was greater than 9.00.
For `CC[C@H](C)[C@H](NC(=O)OC)C(=O)N1CCC[C@H]1C(=O)Nc1ccc(CN(Cc2ccc(NC(=O)[C@@H]3CCCN3C(=O)[C@@H](NC(=O)OC)[C@@H](C)CC)cc2)c2ccccc2)cc1` [Example 9], the negative logarithm of the EC50 (pEC50) was greater than 9.00.
The value for `CCN(CC)[C@@H](C(=O)N1CCC[C@H]1C(=O)Nc1ccc(CN(Cc2ccc(NC(=O)[C@@H]3CCCN3C(=O)[C@@H](NC(=O)OC)C(C)(C)C)cc2)c2ccccc2)cc1)c1ccccc1` [Example 12, Methyl (S)-1-((S)-2-(4-(((4-((S)-1-((R)-2-(diethylamino)-2-phenylacetyl)pyrrolidine-2-carboxamido)benzyl)(phenyl)amino)methyl)phenylcarbamoyl)pyrrolidin-1-yl)-3,3-dimethyl-1-oxobutan-2-ylcarbamate] was greater than 9.00; that for `COC(=O)N[C@H](C(=O)N1CCC[C@H]1C(=O)Nc1ccc(CN(Cc2ccc(NC(=O)[C@@H]3CCCN3C(=O)[C@@H](NC(=O)OC)C3CCCCC3)cc2)c2ccc(F)cc2)cc1)C1CCCCC1` [Example 104, dimethyl ([(4-fluorophenyl)imino]bis{methanediylbenzene-4,1-diylcarbamoyl(25)pyrrolidine-2,1-diyl[(1S)-1-cyclohexyl-2-oxoethane-2,1-diyl]})biscarbamate] was greater than 9.00.
The same measure for `COC(=O)N[C@H](C(=O)N1CCC[C@H]1C(=O)Nc1ccc(CN(Cc2ccc(NC(=O)[C@@H]3CCCN3C(=O)[C@@H](NC(=O)OC)C(C)(C)O)cc2)c2ccc(F)cc2)cc1)C(C)(C)O` [Example 98, dimethyl ([(4-fluorophenyl)imino]bis{methanediylbenzene-4,1-diylcarbamoyl(25)pyrrolidine-2,1-diyl[(2S)-3-hydroxy-3-methyl-1-oxobutane-1,2-diyl]})biscarbamate]: greater than 9.00.
On to `CC(C)(C)[C@H](Nc1nccs1)C(=O)N1CCC[C@H]1C(=O)Nc1ccc(CN(Cc2ccc(NC(=O)[C@@H]3CCCN3C(=O)[C@@H](Nc3nccs3)C(C)(C)C)cc2)c2ccccc2)cc1` [Example 121, (2S,2′S)-N,N′-[(phenylimino)bis(methanediylbenzene-4,1-diyl)]bis{1-[(2S)-3,3-dimethyl-2-(1,3-thiazol-2-ylamino)butanoyl]pyrrolidine-2-carboxamide}], for which the negative logarithm of the EC50 (pEC50) is greater than 9.00.
As to `CCC(CC)[C@H](NC(=O)OC)C(=O)N1CCC[C@H]1C(=O)Nc1ccc(CN(Cc2ccc(NC(=O)[C@@H]3CCCN3C(=O)[C@@H](NC(=O)OC)C(CC)CC)cc2)c2ccc(F)cc2)cc1` [Example 135], the pEC50 was 8.00 to 9.00.
For the molecule `COC(=O)N[C@H](C(=O)N1C[C@H](O)C[C@H]1C(=O)Nc1ccc(CN(Cc2ccc(NC(=O)[C@@H]3C[C@@H](O)CN3C(=O)[C@@H](NC(=O)OC)C(C)(C)C)cc2)c2ccccc2)cc1)C(C)(C)C` [Example 48], the negative logarithm of the EC50 (pEC50) was 8.00 to 9.00.
As to `COC(=O)N[C@H](C(=O)N1CCC[C@H]1C(=O)Nc1ccc(CN(Cc2ccc(NC(=O)[C@@H]3CCCN3C(=O)[C@@H](NC(=O)OC)[C@H](C)O)cc2)c2ccccc2)cc1)[C@H](C)O` [Example 49, dimethyl [(phenylimino)bis{methanediylbenzene-4,1-diylcarbamoyl(2S)pyrrolidine-2,1-diyl[(2S,3S)-3-hydroxy-1-oxobutane-1,2-diyl]}]biscarbamate], the pEC50 was 8.00 to 9.00.
The same measure for `O=C(Nc1ccc(CN(Cc2ccc(NC(=O)[C@@H]3C[C@@H](F)CN3C(=O)[C@@H](c3ccccc3)N3CCCCC3)cc2)c2ccc(F)cc2)cc1)[C@@H]1C[C@@H](F)CN1C(=O)[C@@H](c1ccccc1)N1CCCCC1` [Example 102, (2S,4R,2′S,4′R)-N,N′-{[(4-fluorophenyl)imino]bis(methanediylbenzene-4,1-diyl)}bis{4-fluoro-1-[(2R)-2-phenyl-2-piperidin-1-ylacetyl]pyrrolidine-2-carboxamide}]: greater than 9.00; for `C=CC[C@H](NC(=O)OC)C(=O)N1CCC[C@H]1C(=O)Nc1ccc(CN(Cc2ccc(NC(=O)[C@@H]3CCCN3C(=O)[C@H](CC=C)NC(=O)OC)cc2)c2ccccc2)cc1` [Example 37, dimethyl [(phenylimino)bis{methanediylbenzene-4,1-diylcarbamoyl(2S)pyrrolidine-2,1-diyl[(4S)-5-oxopent-1-ene-5,4-diyl]}]biscarbamate]: 8.00 to 9.00; for `O=C(Nc1ccc(CN(Cc2ccc(NC(=O)[C@@H]3CCCN3C(=O)C(c3ccccc3)C3CCCC3)cc2)c2ccc(F)cc2)cc1)[C@@H]1CCCN1C(=O)C(c1ccccc1)C1CCCC1` (stereo partly drawn) [Example 107, (2S,2′S)-N,N′-{[(4-fluorophenyl)imino]bis(methanediylbenzene-4,1-diyl)}bis{1-[cyclopentyl(phenyl)acetyl]pyrrolidine-2-carboxamide}]: 7.00 to 8.00.
